± gives the expanded uncertainty stated by the source.
Assay: molar heat capacity at constant pressure
Settings: 298.15 K; 101.33 kPa; Liquid; Small sample (50 mg) DSC

| Compound | molar heat capacity at constant pressure |
| --- | --- |
| CCCCCC[C@@H](O)C/C=C\CCCCCCCC(=O)O [[R]-12-hydroxy-cis-9-octadecenoic acid] | 626.77 ± 63 J/K/mol |
| CCCCCC[C@@H](O)CC=CCCCCCCCC(=O)OC [[R]-methyl 12-hydroxy-9-octadecenoate] | 696.53 ± 70 J/K/mol |

Reference: the NIST ThermoML archive (doi:10.1016/j.jct.2012.02.006)
